{"source": "patent US7868205B2", "about": "“Inhibitors of histone deacetylase” (MethylGene Inc., priority 2003, dated 2011)"}
{"biological_target": "human HDAC-1 (Homo sapiens, UniProt Q13547)", "sequence (Q13547 whole entry)": "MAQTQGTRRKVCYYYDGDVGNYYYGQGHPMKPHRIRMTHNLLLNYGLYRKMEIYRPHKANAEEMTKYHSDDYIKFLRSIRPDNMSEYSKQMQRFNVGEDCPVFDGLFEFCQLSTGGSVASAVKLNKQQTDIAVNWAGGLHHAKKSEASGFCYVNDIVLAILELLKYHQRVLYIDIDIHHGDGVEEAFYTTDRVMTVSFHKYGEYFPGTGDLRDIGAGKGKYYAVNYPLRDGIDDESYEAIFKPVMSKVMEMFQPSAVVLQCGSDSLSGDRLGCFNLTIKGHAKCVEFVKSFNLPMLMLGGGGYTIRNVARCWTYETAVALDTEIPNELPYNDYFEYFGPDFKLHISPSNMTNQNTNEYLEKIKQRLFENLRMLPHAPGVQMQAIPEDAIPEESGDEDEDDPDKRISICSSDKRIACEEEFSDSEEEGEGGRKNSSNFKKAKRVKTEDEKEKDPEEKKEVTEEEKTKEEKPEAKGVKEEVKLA", "test": "Inhibition of histone deacetylase enzymatic (HDAC-1) activity", "type": "biochemical", "conditions": "not given", "protocol": "(§1) The following protocol was used to assay the compounds of the invention.\n(§2) The mixture was pre-incubated for 5 minutes at room temperature. The reaction was started by bringing the temperature to 37° C. and adding 16 μl substrate.", "units": {"IC50": "µM"}}
{"compound": "COc1ccc(NCc2ccc(C(=O)Nc3cc(-c4ccoc4)ccc3N)cc2)cc1OC", "note": "[Cpd 91, N-[2-amino-5-(3-furanyl)phenyl]-4-{[(3,4-dimethoxyphenyl)amino]methyl}benzamide]", "IC50": "< 1"}
{"biological_target": "human HDAC-1 (Homo sapiens, UniProt Q13547)", "test": "Inhibition of histone deacetylase enzymatic (HDAC-1) activity", "type": "biochemical", "conditions": "Table 5; Boc-Lys(Ac)-AMC substrate, 37° C., 20 minutes; read-out: HDAC-1 (μM), inhibition of histone deacetylase", "protocol": "as §1, §2", "units": {"IC50": "µM"}}
{"compound": "COc1ccc(NCc2ccc(C(=O)Nc3ccc(-c4cccs4)cc3N)cc2)cc1OC", "note": "[Cpd 16, N-[2-amino-4-(2-thienyl)phenyl]-4-{[(3,4-dimethoxyphenyl)amino]methyl}benzamide]", "IC50": "1 to 20"}
{"compound": "COc1ccc(NCc2ccc(C(=O)Nc3csc(-c4ccccc4)c3N)cc2)cc1OC", "note": "[Cpd 61, N-(4-amino-5-phenyl-3-thienyl)-4-{[(3,4-dimethoxyphenyl)amino]methyl}benzamide]", "IC50": "> 20"}
{"compound": "CN(C)CCOc1ccc2nc(SCc3ccc(C(=O)Nc4cc(-c5cccs5)ccc4N)cc3)[nH]c2c1", "note": "[Cpd 50, N-[2-amino-5-(2-thienyl)phenyl]-4[({6-[2-(dimethylamino)ethoxy]-1H-benzimidazol-2-yl}thio)methyl]benzamide]", "IC50": "< 1"}
{"compound": "CCCCc1ccc(NC(=O)c2ccc(C)cc2)c(N)c1", "note": "[Cpd 71, N-(2-amino-4-butylphenyl)-4-methylbenzamide]", "IC50": "> 20"}
{"compound": "COc1ccc(NCc2ccc(C(=O)Nc3cccc(-c4cccs4)c3)cc2)cc1OC", "note": "[Cpd 32, 4-{[(3,4-dimethoxyphenyl)amino]methyl}-N-[3-(2-thienyl)phenyl]benzamide]", "IC50": "> 20"}
{"compound": "COc1ccc(NCc2ccc(C(=O)Nc3ccc(-c4cccs4)cc3[N+](=O)[O-])cc2)cc1OC", "note": "[Cpd 15, 4-[(3,4-dimethoxy-phenylamino)-methyl]-N-(2-nitro-4-thiophen-2-yl-phenyl)-benzamide]", "IC50": "> 20"}
{"compound": "COc1cc(NCc2ccc3oc(C(=O)Nc4cc(-c5cccs5)ccc4N)cc3c2)cc(OC)c1OC", "note": "[Cpd 29, N-[2-amino-5-(2-thienyl)phenyl]-5-{[(3,4,5-trimethoxyphenyl)amino]methyl}-1-benzofuran-2-carboxamide]", "IC50": "< 1"}
{"compound": "CCCCc1ccc(N)c(NC(=O)c2ccc(C)cc2)c1", "note": "[Cpd 69, N-(2-amino-5-butylphenyl)-4-methylbenzamide]", "IC50": "1 to 20"}
{"compound": "COc1ccc(NCc2ccc(C(=O)Nc3cc(-c4cccs4)ccc3N)cc2)cc1OC", "note": "[Cpd 6, N-[2-amino-5-(2-thienyl)phenyl]-4{[(3,4-dimethoxyphenyl)amino]methyl}benzamide]", "IC50": "< 1"}
{"compound": "COc1ccc(NCc2ccc(C(=O)Nc3cc(Cl)c(F)cc3N)cc2)cc1OC", "note": "[Cpd 35, N-(2-Amino-5-chloro-4-fluoro-phenyl)-4-[(3,4-dimethoxy-phenylamino)-methyl]-benzamide]", "IC50": "1 to 20"}
{"compound": "COc1ccc(NCc2ccc(C(=O)Nc3cc(Br)ccc3N)cc2)cc1OC", "note": "[Cpd 87, N-(2-amino-5-bromophenyl)-4-{[(3,4-dimethoxyphenyl)amino]methyl}benzamide]", "IC50": "1 to 20"}
{"compound": "COc1ccc(NCc2ccc(C(=O)Nc3cc(-c4cccs4)ccc3[N+](=O)[O-])cc2)cc1OC", "note": "[Cpd 5, 4-[(3,4-dimethoxy-phenylamino)-methyl]-N-(2-nitro-5-thiophen-2-yl-phenyl)-benzamide]", "IC50": "> 20"}
{"compound": "COc1ccc(NCc2ccc(C(=O)Nc3c(N)cccc3N)cc2)cc1OC", "note": "[Cpd 94, N-[2,6-diaminophenyl]-4-{[(3,4-dimethoxyphenyl)amino]methyl}benzamide]", "IC50": "1 to 20"}
{"compound": "COc1ccc(NCc2ccc(C(=O)Nc3cc(C#CCO)ccc3N)cc2)cc1OC", "note": "[Cpd 76, N-[2-amino-5-(3-hydroxyprop-1-yn-1-yl)phenyl]-4-{[(3,4-dimethoxyphenyl)amino]methyl}benzamide]", "IC50": "< 1"}
{"compound": "COc1cc(CN2CCc3ccc(C(=O)Nc4cc(-c5cccs5)ccc4N)cc32)cc(OC)c1OC", "note": "[Cpd 23, N-[2-amino-5-(2-thienyl)phenyl]-1-(3,4,5-trimethoxybenzyl)indoline-6-carboxamide]", "IC50": "< 1"}
{"compound": "COc1ccc(NCc2ccc(C(=O)Nc3ccc(Br)cc3N)cc2)cc1OC", "note": "[Cpd 18, N-(2-amino-4-bromophenyl)-4-{[(3,4-dimethoxyphenyl)amino]methyl}benzamide]", "IC50": "1 to 20"}
{"compound": "COc1ccc(NCc2ccc(C(=O)Nc3csc(-c4cccs4)c3N)cc2)cc1OC", "note": "[Cpd 62, N-(3-amino-2,2′-bithien-4-yl)-4-{[(3,4-dimethoxyphenyl)amino]methyl}benzamide]", "IC50": "> 20"}
{"compound": "Nc1ccc(-c2cccs2)cc1NC(=O)c1ccc(CNc2nccc(-c3cccnc3)n2)cc1", "note": "[Cpd 43, N-[2-amino-5-(2-thienyl)phenyl]-4{[(4-pyridin-3-ylpyrimidin-2-yl)amino]methyl}benzamide]", "IC50": "< 1"}
{"compound": "COc1ccc(NCc2ccc(C(=O)Nc3cc(-c4cccs4)ccc3N)cc2)cc1F", "note": "[Cpd 12, N-[2-amino-5-(2-thienyl)phenyl]-4{[(3-fluoro-4-methoxyphenyl)amino]methyl}benzamide]", "IC50": "< 1"}
{"compound": "COc1ccc(NCc2ccc(C(=O)Nc3cc(Cl)c(Cl)cc3N)cc2)cc1OC", "note": "[Cpd 36, N-(2-Amino-4,5-dichloro-phenyl)-4-[(3,4-dimethoxy-phenylamino)-methyl]-benzamide]", "IC50": "1 to 20"}
{"compound": "CCCCc1ccc(N)c(NC(=O)c2ccc(CNc3ccc(OC)c(OC)c3)cc2)c1", "note": "[Cpd 68, N-(2-amino-5-butylphenyl)-4-{[(3,4-dimethoxyphenyl)amino]methyl}benzamide]", "IC50": "1 to 20"}
{"compound": "COc1cc(NCc2ccc(/C=C/C(=O)Nc3cc(-c4cccs4)ccc3N)cc2)cc(OC)c1OC", "note": "[Cpd 67, trans-N-[2-amino-5-(2-thienyl)phenyl]-3-(4-{[(3,4,5-trimethoxyphenyl)amino]methyl}phenyl)acrylamide]", "IC50": "< 1"}
{"compound": "COc1ccc(NCc2ccc(C(=O)Nc3cc(/C=C/C(N)=O)ccc3N)cc2)cc1OC", "note": "[Cpd 88, N-{2-amino-5-[(1E)-3-amino-3-oxoprop-1-en-1-yl]phenyl}-4-{[(3,4-dimethoxyphenyl)amino]methyl}benzamide]", "IC50": "1 to 20"}
{"compound": "COc1ccc(NCc2ccc(C(=O)Nc3cc(F)c(F)cc3N)cc2)cc1OC", "note": "[B, N-(2-amino-4,5-difluorophenyl)-4-{[(3,4-dimethoxyphenyl)amino]methyl}benzamide, reference compound]", "IC50": "1 to 20"}
{"biological_target": "human HDAC-1 (Homo sapiens, UniProt Q13547)", "test": "Inhibition of histone deacetylase enzymatic (HDAC-1) activity", "type": "biochemical", "conditions": "Table 6A, comparative data for planar substituent; read-out: HDAC-1 activity (μm)", "protocol": "as §1, §2", "units": {"IC50": "µM"}}
{"compound": "COc1ccc(NCc2ccc(C(=O)Nc3cc(C(F)(F)F)ccc3N)cc2)cc1OC", "note": "[A, reference compound]", "IC50": "1 to 20"}
{"compound": "COc1ccc(NCc2ccc(C(=O)Nc3ccccc3N)cc2)cc1OC", "note": "[AAA, reference compound]", "IC50": "< 1"}
{"biological_target": "human HDAC-1 (Homo sapiens, UniProt Q13547)", "test": "Inhibition of histone deacetylase enzymatic (HDAC-1) activity", "type": "biochemical", "conditions": "Table 6B, comparative data for planar substituent; read-out: HDAC-1 Activity", "protocol": "as §1, §2", "units": {"IC50": "µM"}}
{"compound": "COc1cc(NCc2ccc(/C=C/C(=O)Nc3ccccc3N)cc2)cc(OC)c1OC", "note": "[QQ, reference compound]", "IC50": "1 to 20"}
{"compound": "COc1ccc(NCc2ccc(C(=O)Nc3ccccc3N)cc2)cc1OC", "note": "[AAA, reference compound]", "IC50": "< 1"}
{"biological_target": "human HDAC-1 (Homo sapiens, UniProt Q13547)", "test": "Inhibition of histone deacetylase enzymatic (HDAC-1) activity", "type": "biochemical", "conditions": "Table 6C", "protocol": "as §1, §2", "units": {"IC50": "µM"}}
{"compound": "Nc1ccc(-c2cccs2)cc1NC(=O)c1ccc2[nH]cnc2c1", "note": "[Compound 258d]", "IC50": "< 1"}
{"compound": "Nc1ccc(-c2cccs2)cc1NC(=O)c1ccc(F)cc1", "note": "[Compound 143b]", "IC50": "< 1"}
{"compound": "Cc1ccc(S(=O)(=O)Nc2ccc(/C=C/C(=O)Nc3cc(-c4cccs4)ccc3N)cc2)cc1", "note": "[Compound 146]", "IC50": "< 1"}
{"compound": "Nc1ccc(-c2cccs2)cc1NC(=O)c1ccc(CN2CCOCC2)cc1", "note": "[Compound 242]", "IC50": "< 1"}
{"compound": "N#Cc1ccc(C(=O)Nc2cc(-c3cccs3)ccc2N)cc1", "note": "[Compound 173]", "IC50": "< 1"}
{"compound": "COc1cc(C(=O)Nc2cc(-c3cccs3)ccc2N)cc2c1OCO2", "note": "[Compound 256c]", "IC50": "< 1"}
{"system": "HCT116 human colon cancer cells", "test": "MTT assay, antiproliferative activity", "type": "cell-based", "conditions": "HCT-116, 72 hours", "protocol": "Table 6C provides data on inhibition of HDAC1 enzyme, on antiproliferative activities (HCT116 human colon cancer cells) of the compounds using 3-[4,5-dimethylthiazol-2-yl-2,5-diphenyltetrazolium]bromide (MTT) assay, as well as induction of p21^WAF1/Cip1 tumor suppressor gene.\nCompounds at various concentrations were added to human colon cancer HCT116 cells plated in 96-well plates. Cells were incubated for 72 hours at 37° C. in 5% CO2 incubator. MTT (3-[4,5-dimethylthiazol-2-yl]-2,5 diphenyl tetrazolium bromide, Sigma) was added at a final concentration of 0.5 mg/ml and incubated with the cells for 4 hours before an equal volume of solubilization buffer (50% N,N-dimethylformamide, 20% SDS, pH 4.7) was added onto cultured cells. After overnight incubation, solubilized dye was quantified by colorimetric reading at […] using a reference at 630 nM. OD values were converted to cell numbers according to a standard growth curve of the relevant cell line. The concentration which reduces cell numbers to 50% of those of DMSO-treated cells is determined as MTT IC50,", "units": {"IC50": "µM"}}
{"compound": "Nc1ccc(-c2cccs2)cc1NC(=O)c1ccc2[nH]cnc2c1", "note": "[Compound 258d]", "IC50": "< 1"}
{"compound": "Nc1ccc(-c2cccs2)cc1NC(=O)c1ccc(F)cc1", "note": "[Compound 143b]", "IC50": "1 to 20"}
{"compound": "Cc1ccc(S(=O)(=O)Nc2ccc(/C=C/C(=O)Nc3cc(-c4cccs4)ccc3N)cc2)cc1", "note": "[Compound 146]", "IC50": "< 1"}
{"compound": "Nc1ccc(-c2cccs2)cc1NC(=O)c1ccc(CN2CCOCC2)cc1", "note": "[Compound 242]", "IC50": "< 1"}
{"compound": "N#Cc1ccc(C(=O)Nc2cc(-c3cccs3)ccc2N)cc1", "note": "[Compound 173]", "IC50": "1 to 20"}
{"compound": "COc1cc(C(=O)Nc2cc(-c3cccs3)ccc2N)cc2c1OCO2", "note": "[Compound 256c]", "IC50": "< 1"}
{"compound": "Nc1ccc(-c2cccs2)cc1NC(=O)c1ccc(CNC(=O)OCc2cccnc2)cc1", "note": "[Compound 143a]", "IC50": "< 1"}
